Laboratory results reported in PubChem BioAssay AID330 (DTP/NCI, 2004).
Several values for one entry are separate records, joined by “and”; a condition that tells them apart may be missing. Identical values can stand only once. Inconclusive results and toxic doses are left out. How the source made its calls: active means survival T/C of 150% or more; inactive means T/C below 125% in these data.

Tested on: P388 leukemia ip, CD2F1 mice, survival T/C
Experiment: NCI In Vivo Anticancer Drug Screen. Data for tumor model P388 Leukemia (intraperitoneal) in CD2F1 (CDF1) mice
Details: endpoint: median survival time, higher = longer survival
Summary of the method: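 Mice carrying the transplanted tumor received test compound or vehicle. Survival was recorded in each group, and the value is the treated-group measurement divided by that of the vehicle-treated control group.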

[1] = dose: 50.0 mg/kg/injection, schedule: Q01DX005 (ip), vehicle: saline with Tween-80
[2] = dose: 100.0 mg/kg/injection, schedule: Q01DX005 (ip), vehicle: saline with Tween-80
[3] = dose: 200.0 mg/kg/injection, schedule: Q01DX005 (ip), vehicle: saline with Tween-80
[4] = dose: 60.0 mg/kg/injection, schedule: Q01DX005 (ip), vehicle: saline with Tween-80
[5] = dose: 120.0 mg/kg/injection, schedule: Q01DX005 (ip), vehicle: saline with Tween-80
[6] = dose: 240.0 mg/kg/injection, schedule: Q01DX005 (ip), vehicle: saline with Tween-80
[7] = dose: 50.0 mg/kg/injection, schedule: Q01DX009 (ip), vehicle: Klucel (hydroxypropylcellulose) (HPC)
[8] = dose: 100.0 mg/kg/injection, schedule: Q01DX009 (ip), vehicle: Klucel (hydroxypropylcellulose) (HPC)
[9] = dose: 200.0 mg/kg/injection, schedule: Q01DX009 (ip), vehicle: Klucel (hydroxypropylcellulose) (HPC)
[10] = dose: 50.0 mg/kg/injection, schedule: Q01DX009 (ip), vehicle: saline with Tween-80
[11] = dose: 100.0 mg/kg/injection, schedule: Q01DX009 (ip), vehicle: saline with Tween-80
[12] = dose: 200.0 mg/kg/injection, schedule: Q01DX009 (ip), vehicle: saline with Tween-80
[13] = dose: 25.0 mg/kg/injection, schedule: Q01DX009 (ip), vehicle: saline
[14] = dose: 50.0 mg/kg/injection, schedule: Q01DX009 (ip), vehicle: saline
[15] = dose: 100.0 mg/kg/injection, schedule: Q01DX009 (ip), vehicle: saline
[16] = dose: 200.0 mg/kg/injection, schedule: Q01DX009 (ip), vehicle: saline
[17] = dose: 100.0 mg/kg/injection, schedule: Q04DX003 (ip), vehicle: saline with Tween-80

Measured: T/C

C[N+]1=CN(S(=O)(=O)C2C=CC=CC=C2)CC1(C)C
inactive: dose: 100.0 mg/kg/injection, schedule: Q04DX003 (ip), vehicle: saline 100 % of control | dose: 200.0 mg/kg/injection, schedule: Q04DX003 (ip), vehicle: saline 107 % of control | dose: 400.0 mg/kg/injection, schedule: Q04DX003 (ip), vehicle: saline 97 % of control

O=C(/C(=C\c1ccc(F)cc1)S(=O)(=O)c1ccc(Br)cc1)c1ccccc1
inactive: [1] 100 % of control | [2] 97 % of control | [3] 95 % of control

Nc1[nH]n(-c2ccccc2)c(=O)c1C1c2ccccc2Sc2ccccc21
inactive: [4] 99 % of control | [5] 99 % of control | [6] 95 % of control

CC1=C(C#N)C(=O)OC1(C)C(CC(=O)c1ccccc1)c1ccccc1 (configuration not stated)
inactive: [4] 92 % of control | [5] 87 % of control | [6] 91 % of control

CC(=O)N(C)N(Cc1ccc(C#N)cc1)C(C)=O
inactive: dose: 25.0 mg/kg/injection, schedule: Q01DX009 (ip), vehicle: Klucel (hydroxypropylcellulose) (HPC) 101 % of control | [7] 98 % of control | [8] 99 % of control | [9] 108 % of control | dose: 400.0 mg/kg/injection, schedule: Q01DX009 (ip), vehicle: Klucel (hydroxypropylcellulose) (HPC) 98 % of control

CCOC(OCC)/C(=C\N(C)C)N=C(C#N)C#N
inactive: [1] 113 % of control | [2] 111 % of control

S=C1SCN(Cc2ccccc2)CN1Cc1ccccc1
inactive: [10] 100 % of control | [11] 93 % of control | [12] 89 % of control

O=C(O)C(O)C(Cl)(Cl)Cl (configuration not stated)
inactive: [13] 107 % of control | [14] 96 % of control | [15] 88 % of control | [16] 91 % of control

O=C1NC(=O)C(=NC2C(=O)NC(=O)NC2=O)C(=O)N1
inactive: dose: 30.0 mg/kg/injection, schedule: Q01DX005 (ip), vehicle: saline 96 % of control | dose: 60.0 mg/kg/injection, schedule: Q01DX005 (ip), vehicle: saline 92 % of control and 95 % of control | dose: 120.0 mg/kg/injection, schedule: Q01DX005 (ip), vehicle: saline 92 % of control | dose: 240.0 mg/kg/injection, schedule: Q01DX005 (ip), vehicle: saline 86 % of control

Cc1ccc(SNc2ccccc2)cc1
inactive: dose: 50.0 mg/kg/injection, schedule: Q04DX003 (ip), vehicle: saline with Tween-80 96 % of control | [17] 96 % of control

CCC(C)CN1CCc2c(c3c(c(OC)c2OC)CCC3)C1 (configuration not stated)
inactive: dose: 50.0 mg/kg/injection, schedule: Q04DX002 (ip), vehicle: saline 101 % of control | dose: 100.0 mg/kg/injection, schedule: Q04DX002 (ip), vehicle: saline 102 % of control | dose: 200.0 mg/kg/injection, schedule: Q04DX002 (ip), vehicle: saline 96 % of control

COC(=O)N1C=Cc2ccccc2C1(C#N)C(=S)SC (configuration not stated)
inactive: [1] 102 % of control | [2] 93 % of control | [3] 91 % of control

O=C(Nc1ccc(Cl)cc1)O/N=C/c1ccc2c(c1)OCO2
inactive: [10] 93 % of control | [11] 91 % of control | [12] 86 % of control

CCCCCCCC/C=C\C(O)=C1\C(=O)NC(CCCNC(=O)OCc2ccccc2)C1=O (configuration not stated)
inactive: dose: 25.0 mg/kg/injection, schedule: Q04DX002 (ip), vehicle: saline with Tween-80 100 % of control | dose: 50.0 mg/kg/injection, schedule: Q04DX002 (ip), vehicle: saline with Tween-80 100 % of control | dose: 100.0 mg/kg/injection, schedule: Q04DX002 (ip), vehicle: saline with Tween-80 86 % of control | dose: 200.0 mg/kg/injection, schedule: Q04DX002 (ip), vehicle: saline with Tween-80 91 % of control | dose: 400.0 mg/kg/injection, schedule: Q04DX002 (ip), vehicle: saline with Tween-80 103 % of control

CCCCCCCCCCCCOc1ccc(Br)cc1C(=O)O
inactive: [10] 100 % of control | [11] 112 % of control | [12] 105 % of control

O=C(O)c1c[nH]c2cc(OCCc3ccc(F)cc3)ccc2c1=O
inactive: [14] 107 % of control | [15] 101 % of control | [16] 101 % of control

O=c1[nH]c2ccccc2c2cc3ccccc3cc12
inactive: dose: 6.25 mg/kg/injection, schedule: Q01DX009 (ip), vehicle: saline 94 % of control | dose: 12.5 mg/kg/injection, schedule: Q01DX009 (ip), vehicle: saline 86 % of control | [13] 99 % of control | [14] 96 % of control | [11] 89 % of control | [12] 89 % of control | dose: 400.0 mg/kg/injection, schedule: Q01DX009 (ip), vehicle: saline with Tween-80 89 % of control

CN(C)c1ccc(/C=C/c2ccc3c(c2)OCO3)cc1
inactive: [7] 98 % of control | [8] 95 % of control | [9] 98 % of control

CCOC(=O)NNc1cccc(Cl)c1
inactive: [14] 100 % of control | [15] 100 % of control

COc1cc(C(C)c2cc3c(cc2OC)OCO3)ccc1OCc1ccccc1 (configuration not stated)
inactive: dose: 25.0 mg/kg/injection, schedule: Q01DX005 (ip), vehicle: distilled water + Tween-80 103 % of control | dose: 50.0 mg/kg/injection, schedule: Q01DX005 (ip), vehicle: distilled water + Tween-80 99 % of control and 87 % of control | dose: 100.0 mg/kg/injection, schedule: Q01DX005 (ip), vehicle: distilled water + Tween-80 100 % of control | dose: 200.0 mg/kg/injection, schedule: Q01DX005 (ip), vehicle: distilled water + Tween-80 94 % of control

c1ccc2c(c1)/C(=N/c1nccs1)N/C2=N\c1nccs1
inactive: [17] 97 % of control | dose: 200.0 mg/kg/injection, schedule: Q04DX003 (ip), vehicle: saline with Tween-80 93 % of control | dose: 400.0 mg/kg/injection, schedule: Q04DX003 (ip), vehicle: saline with Tween-80 91 % of control

O=C(O)C(O)C(F)(F)C(F)(F)C(F)(F)F (configuration not stated)
inactive: [1] 97 % of control | [2] 94 % of control | [3] 88 % of control

Cc1ccc(S(=O)/C=C/c2ccccc2)cc1 (configuration not stated)
inactive: dose: 50.0 mg/kg/injection, schedule: Q01DX009 (ip), vehicle: other 103 % of control | dose: 100.0 mg/kg/injection, schedule: Q01DX009 (ip), vehicle: other 97 % of control | dose: 200.0 mg/kg/injection, schedule: Q01DX009 (ip), vehicle: other 101 % of control

CCCCN1CCC(CNc2ccnc3cc(Cl)ccc23)C1 (configuration not stated)
inactive: dose: 12.5 mg/kg/injection, schedule: Q01DX005 (ip), vehicle: saline with Tween-80 93 % of control | dose: 25.0 mg/kg/injection, schedule: Q01DX005 (ip), vehicle: saline with Tween-80 90 % of control | [1] 109 % of control and 93 % of control

CN(C)c1ccc(/C=C/C=N/NC(=S)NC23CC4CC(CC(C4)C2)C3)cc1
inactive: [4] 89 % of control | [5] 86 % of control

CN=C(C)NO
inactive: dose: 50.0 mg/kg/injection, schedule: Q01DX005 (ip), vehicle: saline 106 % of control | dose: 100.0 mg/kg/injection, schedule: Q01DX005 (ip), vehicle: saline 104 % of control | dose: 200.0 mg/kg/injection, schedule: Q01DX005 (ip), vehicle: saline 99 % of control

CN(Cc1ccco1)NC(=O)C(=O)NCc1ccco1
inactive: [1] 97 % of control | [3] 88 % of control
